This experiment addresses Factor D (Homo sapiens (Human), UniProt P00746). Description: Factor D esterolytic assay (Z-Lys-SBzl substrate, DTNB, 405 nm). It is filed as biochemical. To be noted: Z-Lys-SBzl 1.29 mM, pH 7.5, 10% DMSO, tested a minimum of three times, read-out: Measured Ki (IC50) Value for Compounds: IC50. The method, boiled down: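 Thioester hydrolysis (Z-Lys-SBzl, 1.29 mM) by human Factor D ([…]) detected through DTNB color at 405 nm over 600 sec, minus 690 nm background. Buffer: 100 mM HEPES pH 7.5, 500 mM NaCl, 10% DMSO; optional room-temperature preincubation before substrate. IC50 derived from percent rate inhibition; at least three runs.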

pIC50: −log10 of the molar value.

Chain of Factor D (P00746 26-253): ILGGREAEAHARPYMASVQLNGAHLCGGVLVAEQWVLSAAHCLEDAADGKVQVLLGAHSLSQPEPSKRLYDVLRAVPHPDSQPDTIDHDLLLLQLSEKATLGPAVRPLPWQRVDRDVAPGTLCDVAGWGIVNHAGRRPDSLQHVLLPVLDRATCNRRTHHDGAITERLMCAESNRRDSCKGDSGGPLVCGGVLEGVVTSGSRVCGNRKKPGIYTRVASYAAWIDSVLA

On to `Cc1ccc(CC(=O)O)c(OCc2cc(-c3cccc(CN)c3)c3oc(F)cc3c2)c1` [Compound 299c, 2-(2-((7-(3-(aminomethyl)phenyl)-2-fluorobenzofuran-5-yl)methoxy)-4-methylphenyl)acetic acid], for which the pIC50 is above 6.00.

Take `Cc1ccc(CC(=O)O)c(OCc2cc(-c3cccc(CN)c3)c3ccn(C)c3c2)c1` [Compound 358c, 2-(2-((4-(3-(aminomethyl)phenyl)-1-methyl-1H-indol-6-yl)methoxy)-4-methylphenyl)acetic acid]: the negative logarithm of the IC50 (pIC50) is above 6.00. `C[C@@H](N)c1cccc(-c2cc(COc3ccccc3CC(=O)O)cc3ccoc23)c1` [Compound 78c, (R)-2-(2-((7-(3-(1-aminoethyl)phenyl)benzofuran-5-yl)methoxy)phenyl)acetic acid]: the negative-log IC50 (pIC50) is above 6.00. Take `NCc1cccc(-c2cc(COc3cc(C4CCCC4)ccc3CC(=O)O)cc3ccoc23)c1` [Compound 395c, 2-(2-((7-(3-(aminomethyl)phenyl)benzofuran-5-yl)methoxy)-4-cyclopentylphenyl)acetic acid]: the pIC50 is above 6.00. For `NCc1cccc(-c2cc(COc3ccccc3CC(=O)O)cc3c2ccn3S(=O)(=O)C2CC2)c1F` [Compound 213b, 2-(2-((4-(3-(aminomethyl)-2-fluorophenyl)-1-(cyclopropylsulfonyl)-1H-indol-6-yl)methoxy)phenyl)acetic acid], the pIC50 is above 6.00. In the case of `NCc1cccc(-c2cc(COc3cc(F)ccc3CC(=O)O)cc3cc(F)oc23)c1F` [Compound 521b, 2-(2-((7-(3-(aminomethyl)-2-fluorophenyl)-2-fluorobenzofuran-5-yl)methoxy)-4-fluorophenyl)acetic acid] it was above 6.00; in that of `NCc1cccc(-c2cc(COc3ccccc3CC(=O)O)cc3cc(COc4ccccc4)oc23)c1` [Compound 457c, 2-(2-((7-(3-(aminomethyl)phenyl)-2-(phenoxymethyl)benzofuran-5-yl)methoxy)phenyl)acetic acid], above 6.00. In the case of `NCc1cc(-c2cc(COc3cc(F)ccc3CC(=O)O)c(F)c3ccoc23)ccn1` [Compound 503c, 2-(2-((7-(2-(aminomethyl)pyridin-4-yl)-4-fluorobenzofuran-5-yl)methoxy)-4-fluorophenyl)acetic acid] it was above 6.00; in that of `Cc1noc2c(-c3cccc(CN)c3F)cc(COc3ccccc3CC(=O)O)cc12` [Compound 267h, 2-(2-((7-(3-(aminomethyl)-2-fluorophenyl)-3-methylbenzo[d]isoxazol-5-yl)methoxy)phenyl)acetic acid], above 6.00.

Regarding `NCc1cc(-c2cc(COc3ccccc3CC(=O)O)cc3sc(Cl)cc23)ccn1` [Compound 336c, 2-(2-((4-(2-(aminomethyl)pyridin-4-yl)-2-chlorobenzo[b]thiophen-6-yl)methoxy)phenyl)acetic acid], the negative logarithm of the IC50 (pIC50) is above 6.00. In the case of `Cc1ccc2c(C(=O)Nc3ccccc3CC(=O)O)nc(-c3cccc(CN)c3F)nn12` [Compound 161e, 2-(2-(2-(3-(aminomethyl)-2-fluorophenyl)-7-methylpyrrolo[2,1-f][1,2,4]triazine-4-carboxamido)phenyl)acetic acid], the negative logarithm of the IC50 (pIC50) is above 6.00. In the case of `NCc1cccc(-c2cc(COc3ccccc3CC(=O)O)cc3[nH]ncc23)c1F` [Compound 124g, 2-(2-((4-(3-(aminomethyl)-2-fluorophenyl)-1H-indazol-6-yl)methoxy)phenyl)acetic acid] it was above 6.00; in that of `Cc1ccc(CC(=O)O)c(OCc2cc(-c3ccnc(CN)c3F)c3occc3c2)c1C` [Compound 305d, 2-(2-((7-(2-(aminomethyl)-3-fluoropyridin-4-yl)benzofuran-5-yl)methoxy)-3,4-dimethylphenyl)acetic acid], above 6.00.

As for `Cc1ccc(S(=O)(=O)n2ccc3cc(COc4ccccc4CC(=O)O)cc(-c4cccc(CN)c4)c32)cc1` [Compound 146g, 2-(2-((7-(3-(aminomethyl)phenyl)-1-tosyl-1H-indol-5-yl)methoxy)phenyl)acetic acid], the pIC50 is 5.00 to 6.00. Regarding `COCc1cc2cc(COc3cc(F)ccc3CC(=O)O)cc(-c3cccc(CN)c3F)c2o1` [Compound 478b, 2-(2-((7-(3-(aminomethyl)-2-fluorophenyl)-2-(methoxymethyl)benzofuran-5-yl)methoxy)-4-fluorophenyl)acetic acid], the negative-log IC50 (pIC50) is above 6.00. The result for `NCc1cccc(-c2cc(COc3ccc(C4CC4)cc3CC(=O)O)cc3ccoc23)c1` [Compound 130g, 2-(2-((7-(3-(aminomethyl)phenyl)benzofuran-5-yl)methoxy)-5-cyclopropylphenyl)acetic acid] reads above 6.00; that for `NCc1cccc(-c2cc(C(=O)Nc3ccccc3CC(=O)O)c3nccn3n2)c1` [Compound 27f, 2-(2-(6-(3-(aminomethyl)phenyl)imidazo[1,2-b]pyridazine-8-carboxamido)phenyl)acetic acid], below 5.00; that for `COc1ccc(-c2ccc(CC(=O)O)c(OCc3cc(-c4cccc(CN)c4)c4occc4c3)c2)c(F)c1` [Compound 397e, 2-(3-((7-(3-(aminomethyl)phenyl)benzofuran-5-yl)methoxy)-2′-fluoro-4′-methoxy-[1,1′-biphenyl]-4-yl)acetic acid], above 6.00. In the case of `NCc1cccc(-c2cc(C(=O)Nc3ccccc3CC(=O)O)nc3ccoc23)c1` [Compound 255c, 2-(2-(7-(3-(aminomethyl)phenyl)furo[3,2-b]pyridine-5-carboxamido)phenyl)acetic acid] it was 5.00 to 6.00; in that of `COCc1cc2cc(COc3cc(C)ccc3CC(=O)O)cc(-c3ccnc(CN)c3)c2o1` [Compound 454d, 2-(2-((7-(2-(aminomethyl)pyridin-4-yl)-2-(methoxymethyl)benzofuran-5-yl)methoxy)-4-methylphenyl)acetic acid], above 6.00; in that of `CC(C)n1ccc2c(-c3ccnc(CN)c3F)cc(COc3ccc(F)cc3CC(=O)O)cc21` [Compound 513c, 2-(2-((4-(2-(aminomethyl)-3-fluoropyridin-4-yl)-1-isopropyl-1H-indol-6-yl)methoxy)-5-fluorophenyl)acetic acid], above 6.00. In the case of `NCc1cccc(-c2cc(OC[C@@H]3CCC[C@H]3C(=O)NCc3cccc(Cl)c3F)cc3ccoc23)c1` (relative stereo) [Compound 340e, (trans)-2-(((7-(3-(aminomethyl)phenyl)benzofuran-5-yl)oxy)methyl)-N-(3-chloro-2-fluorobenzyl)cyclopentanecarboxamide] it was 5.00 to 6.00. For `NCc1cccc(-c2cc(COc3ccccc3CC(=O)O)cc3ccsc23)c1F` [Compound 247b, 2-(2-((7-(3-(aminomethyl)-2-fluorophenyl)benzo[b]thiophen-5-yl)methoxy)phenyl)acetic acid], the negative-log IC50 (pIC50) was above 6.00. The result for `NC(CF)c1cc(-c2cc(COc3ccccc3CC(=O)O)cc3ccoc23)ccn1` (single isomer, unassigned; (+)) [Compound 327d, (+)-2-(2-((7-(2-(1-amino-2-fluoroethyl)pyridin-4-yl)benzofuran-5-yl)methoxy)phenyl)acetic acid] reads above 6.00; that for `N#Cc1ccc(CC(=O)O)c(OCc2cc(-c3cccc(CN)c3F)c3occc3c2)c1` [Compound 414b, 2-(2-((7-(3-(aminomethyl)-2-fluorophenyl)benzofuran-5-yl)methoxy)-4-cyanophenyl)acetic acid], above 6.00. In the case of `NCc1cccc(-c2cc(COc3ccccc3CC(=O)O)cc3cc(CNCC4CCCNC4)oc23)c1` (stereo not drawn) [Compound 194d, 2-(2-((7-(3-(aminomethyl)phenyl)-2-(((piperidin-3-ylmethyl)amino)methyl)benzofuran-5-yl)methoxy)phenyl)acetic acid] it was above 6.00. As for `Cc1cc(CC(=O)O)c(OCc2cc(-c3cccc(CN)c3F)c3occc3c2)cc1C` [Compound 427b, 2-(2-((7-(3-(aminomethyl)-2-fluorophenyl)benzofuran-5-yl)methoxy)-4,5-dimethylphenyl)acetic acid], the pIC50 is above 6.00. The result for `Cc1cccc(CC(=O)O)c1NC(=O)c1nc(-c2cccc(CN)c2)nn2cccc12` [Compound 53d, 2-(2-(2-(3-(aminomethyl)phenyl)pyrrolo[2,1-f][1,2,4]triazine-4-carboxamido)-3-methylphenyl)acetic acid] reads above 6.00; that for `CCOC(=O)Cc1ccccc1OCc1nc(-c2cccc(CN)c2)nn2cccc12` [Compound 25c, ethyl 2-(2-((2-(3-(aminomethyl)phenyl)pyrrolo[2,1-f][1,2,4]triazin-4-yl)methoxy)phenyl)acetate], 5.00 to 6.00; that for `CCc1ccc(CC(=O)O)c(OCc2cc(-c3cccc(CN)c3F)c3occc3c2)c1` [Compound 315f, 2-(2-((7-(3-(aminomethyl)-2-fluorophenyl)benzofuran-5-yl)methoxy)-4-ethylphenyl)acetic acid], above 6.00. The result for `COc1ccc(CC(=O)O)c(OCc2cc(-c3ccnc(CN)c3F)c3occc3c2F)c1` [Compound 385d, 2-(2-((7-(2-(aminomethyl)-3-fluoropyridin-4-yl)-4-fluorobenzofuran-5-yl)methoxy)-4-methoxyphenyl)acetic acid] reads above 6.00. The result for `COCc1cc2cc(COc3ccc(F)cc3CC(=O)O)cc(-c3cccc(CN)c3)c2o1` [Compound 462c, 2-(2-((7-(3-(aminomethyl)phenyl)-2-(methoxymethyl)benzofuran-5-yl)methoxy)-5-fluorophenyl)acetic acid] reads above 6.00; that for `NCc1cccc(-c2cc(COc3c(F)cccc3CC(=O)O)cc3ccoc23)c1` [Compound 264c, 2-(2-((7-(3-(aminomethyl)phenyl)benzofuran-5-yl)methoxy)-3-fluorophenyl)acetic acid], above 6.00.

The record behind these values is patent US11370774B2, “Substituted benzofuran, benzopyrrole, benzothiophene, and structurally related complement inhibitors” (BioCryst Pharmaceuticals, Inc., priority 2018, dated 2022).
